# Measured values reported in patent US5177082A, “Huperzines and analogs” (priority 1990, dated 1993).
# Read-outs that look alike come from different tables or passages of the source.
# Experiments:
# true cholinesterase = true cholinesterase (Rattus norvegicus, UniProt P37136); assay: biochemical; set-up: Red blood cell membranes of rats; from tissue; host or cells: rat red blood cell membranes
# Description: (§1) Red blood cell membranes of rats were used as the source for the true cholinesterase with a substrate concentration of 0.3 mM of S-acetylthiocholine iodide. The source for pseudocholinesterase was 0.1 ml of rat blood serum and the substrate was 0.4 mM S-butyrylthiocholine iodide. The Ellman colorimetric method was used to measure the enzyme activity. The percentage of enzyme activity remaining was plotted against negative logarithm (pI) of the drug concentration and the pI50 (the negative logarithm of the gram molecule concentration of the drug required to inhibit the enzyme activity 50%) was derived.
# pseudocholinesterase = molecular target: T1, pseudocholinesterase (Rattus norvegicus, UniProt Q9JKC1); assay: biochemical
# T1 construct: 0.1 ml of rat blood serum; from tissue; host or cells: rat blood serum
# T1 sequence (Q9JKC1 24-597): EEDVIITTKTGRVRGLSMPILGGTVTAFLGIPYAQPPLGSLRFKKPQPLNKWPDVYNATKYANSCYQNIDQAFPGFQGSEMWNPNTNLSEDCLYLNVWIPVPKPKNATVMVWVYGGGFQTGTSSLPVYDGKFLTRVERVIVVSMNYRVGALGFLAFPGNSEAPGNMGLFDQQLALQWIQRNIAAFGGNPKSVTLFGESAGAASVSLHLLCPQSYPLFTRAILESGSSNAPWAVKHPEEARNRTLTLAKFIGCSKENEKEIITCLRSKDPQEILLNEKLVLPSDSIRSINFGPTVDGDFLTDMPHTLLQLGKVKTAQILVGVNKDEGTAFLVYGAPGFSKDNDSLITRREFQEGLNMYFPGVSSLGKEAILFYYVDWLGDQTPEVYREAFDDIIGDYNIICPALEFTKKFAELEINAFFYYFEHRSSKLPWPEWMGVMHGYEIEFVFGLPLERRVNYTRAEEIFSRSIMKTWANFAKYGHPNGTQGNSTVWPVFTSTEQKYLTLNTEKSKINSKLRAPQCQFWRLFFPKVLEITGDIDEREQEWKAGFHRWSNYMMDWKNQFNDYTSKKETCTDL
# Description: as §1
# TA100 = assay: Mutation test (Ames) TA100 + S9; details: 1500 μg/container
# [1] = system: Sciatic Nerve/Tibialis Muscle Preparation; assay: Anesthetized rat sciatic nerve/tibialis muscle preparation; assay type: in vivo; details: for minimal effective dose: Rattus norvegicus, iv, read-out: Lowest Effective Dosage for Enhancing Muscle Contraction
# Description: (§3) Anesthesized Rat and Rabbit Sciatic Nerve/Tibialis Muscle Preparation
# (§4) Anesthesia was produced in rats by ip injections of 30 mg/kg of pentobarbital and in rabbits by iv injections of 1 g/kg of urethane. Electric stimulation of the periphery of the sciatic nerve (5-10 V, 0.5 ms, 1 c/10 s) caused tibialis contraction which was recorded on smoked paper.
# in vivo [2] = details: mouse, ip
# Rats = details: rat, in vivo
# in vivo [3] = details: rat, ip
# [4] = system: Sciatic Nerve/Tibialis Muscle Preparation; assay: Anesthetized rabbit sciatic nerve/tibialis muscle preparation; assay type: in vivo; details: rabbits; for minimal effective dose: Oryctolagus cuniculus, iv, read-out: Lowest Effective Dosage for Enhancing Muscle Contraction
# Description: as §3, §4
# [5] = system: In Vitro Rat Nerve/Diaphragm Muscle Contraction; assay: In vitro phrenic nerve/diaphragm preparations of rats, enhancement of muscle contraction; details: for EC50: read-out: Enhancement of Muscle Contraction Amplitude, 50% Concentration; for Strength of Effect: relative to Huperzine A = 1.00
# Description: 1. In Vitro Phrenic Nerve/Diaphragm Preparations of Rats.
# After the fast decapitation of a rat, the thoracic cavity was opened and the right diaphragm with attached phrenic nerve was removed. After placing it in a Tyrode's solution (37° C. constant temperature), gassed with 95% oxygen+5% CO2, electrical stimulation (1-10 V, 0.5 ms, 1 c/10 s) of the phrenic nerve was used to produce muscle contraction. A transducer was used to record the contraction amplitude on a panel recorder. […].
# Mice = details: mouse, in vivo
# myasthenia gravis = assay: Double blind cross-over comparison of Huperzine A and neostigmine, 69 cases of myasthenia gravis; assay type: in vivo, human
# Excerpt: (§2) Patients affected with myasthenia gravis (MG) with typical clinical symptoms which improved after using neostigmine were the subjects for testing and verification. […] The injections were all given in the morning and on the morning prior to the injections anticholinesterase drugs were discontinued. Neither the patients nor the doctors knew which drug was being injected. Later, the symptoms, the duration of the improvements, if any, which were obtained by the drugs and the side effects were recorded.
# (1) Comparison of the maintained times of the effects.
# patients = assay: Clinical side effects in patients with myasthenia gravis; assay type: in vivo, human
# Description: as §2, with “verification. […] It was generally used for at least ten days and each dosage was 0.4-0.5 mg.” for “verification.”, “recorded. Based on these factors, the relative merits of the two drugs were established.” for “recorded.”
# [6] = system: learning functions of rats; assay: Y maze conditioned reflex test, learning process of rats; details: 0.08 mg/kg, iv
# Description: Each animal was required to go through 10 successive shock-free runs to be classified as learned.
# memory functions of rats = assay: Memory function of preconditioned rats after 48 hours; assay type: in vivo, rat; details: 0.15 mg/kg, after 48 hours
# Description: To evaluate the impact on the memory function, preconditioned animals going through 5 shock-free runs were used as learned animals. After 48 hours the drug-free (control) animals required 14.4±8.9 shocks to become learned.
# [7] = 0.4 mM S-butyrylthiocholine iodide, read-out: Inhibition of Cholinesterase (pI50), Blood serum (converted)
# [8] = in vitro rat phrenic nerve/diaphragm, 37° C.
# [9] = 0.3 mM S-acetylthiocholine iodide, read-out: Inhibition of Cholinesterase (pI50), Red Blood Cells (converted)
# true cholinesterase, sequence (P37136-2 with tags, fused parts or gaps limits assumed): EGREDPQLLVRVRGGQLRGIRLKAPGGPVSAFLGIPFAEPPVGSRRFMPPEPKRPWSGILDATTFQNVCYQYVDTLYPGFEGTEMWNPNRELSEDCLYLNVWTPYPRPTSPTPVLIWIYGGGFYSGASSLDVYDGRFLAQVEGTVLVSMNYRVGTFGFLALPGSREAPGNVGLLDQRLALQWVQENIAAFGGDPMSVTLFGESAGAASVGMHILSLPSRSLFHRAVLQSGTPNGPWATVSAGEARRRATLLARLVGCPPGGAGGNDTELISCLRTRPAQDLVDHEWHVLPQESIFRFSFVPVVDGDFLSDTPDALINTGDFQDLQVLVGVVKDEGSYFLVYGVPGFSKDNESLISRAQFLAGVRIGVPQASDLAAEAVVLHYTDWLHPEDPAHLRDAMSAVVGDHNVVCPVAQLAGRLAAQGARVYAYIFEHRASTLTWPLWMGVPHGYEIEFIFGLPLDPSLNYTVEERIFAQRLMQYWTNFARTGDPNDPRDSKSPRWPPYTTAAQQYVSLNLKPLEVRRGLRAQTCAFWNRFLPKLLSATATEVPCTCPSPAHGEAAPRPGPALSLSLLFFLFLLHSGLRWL
molecule,measurement,setting,value
"CCC1[C@H]2C=C(C)C[C@]1(N)c1ccc(=O)[nH]c1C2 (stereo partly drawn) [11,12-dihydro-huperzine A, (5R, 9R)-5-amino-11-ethyl-5,6,9,10-tetrahydro-7-methyl-5,9-methanocycloocta[b]pyridin-2(1H)-one]",IC50,true cholinesterase,0.631 µM
same,IC50,pseudocholinesterase; [7],12.6 µM
O=P1(N(CCCl)CCCl)NCCCO1 (stereo not shown) [Cyclophosphamide],"reverse mutation colonies, TA100 + S9",TA100,566 ± 10
"COc1ccc2c3c1O[C@H]1C[C@@H](O)C=C[C@@]31CCN(C)C2 [Galanthamine, reference compound]",minimal effective dose,[1],0.5 mg/kg
same,Strength of Effect,"[1]; rat, in vivo",1.0
same,LD50,in vivo [2],13.4 mg/kg
same,Toxic Strength,Rats,1.22
same,LD50,in vivo [3],22.9 mg/kg
same,"Inhibition of Cholinesterase (pI50), Blood serum",pseudocholinesterase,4.9
same,minimal effective dose,[4],0.5 mg/kg
same,Strength of Effect,[4]; galanthamine = 1.0,1.0
same,EC50,[5]; [8],4.2 µM
same,Strength of Effect,[5],0.10
same,Toxic Strength,Mice,0.13
"CC1=C[C@H]2Cc3[nH]c(=O)ccc3[C@]3(C1)NCCC[C@H]23 [Huperzine B, (4aR, 5R, 10bR)-1,2,3,4,4a,5,6,10b-octahydro-12-methyl-5,10b-propeno-1,7-phenanthrolin-8(7H)-one]",IC50,true cholinesterase,0.501 µM
same,IC50,pseudocholinesterase,200 µM
same,EC50,[5]; Rattus norvegicus,4.8 µM
same,Strength of Effect,[5],0.09
"C/C=C1\[C@H]2C=C(C)C[C@]1(NC(C)=O)c1ccc(=O)[nH]c1C2 [N-acetyl huperzine A, (5R, 9R, 11E)-5-(acetylamino)-11-ethylidene-5,6,9,10-tetrahydro-7-methyl-5,9-methanocycloocta[b]pyridin-2(1H)-one]",IC50,true cholinesterase; [9],> 3160 µM
same,"Inhibition of Cholinesterase, Blood serum (concentration found ineffective)",pseudocholinesterase,1.1 × 10^-2 M ineffective
"C/C=C1\[C@H]2C=C(C)C[C@]1(N(C)C)c1ccc(=O)[nH]c1C2 [N-dimethyl huperzine A, (5R, 9R, 11E)-11-ethylidene-5,6,9,10-tetrahydro-7-methyl-5-(dimethylamino)-5,9-methanocycloocta[b]pyridin-2(1H)-one]",IC50,true cholinesterase,158 µM
same,"Inhibition of Cholinesterase, Blood serum (concentration found ineffective)",pseudocholinesterase; 0.4 mM S-butyrylthiocholine iodide,1.2 × 10^-2 M ineffective
"CC1=C[C@H]2Cc3[nH]c(=O)ccc3[C@@]3(C1)[C@@H]2CCCN3C [N-methyl huperzine B, (4aR, 5R, 10bR)-1,2,3,4,4a,5,6,10b-octahydro-1,12-dimethyl-5,10b-propeno-1,7-phenanthrolin-8(7H)-one]",IC50,pseudocholinesterase; [7],316 µM
"C/C=C1\[C@H]2C=C(C)C[C@]1(N(C)C)c1ccc(=O)n(C)c1C2 [N-trimethyl-huperzine A, (5R, 9R, 11E)-11-ethylidene-5,6,9,10-tetrahydro-1,7-dimethyl-5-(dimethylamino)-5,9-methanocycloocta[b]pyridin-2(1H)-one]",IC50,true cholinesterase; [9],316 µM
same,"Inhibition of Cholinesterase, Blood serum (concentration found ineffective)",pseudocholinesterase,1.1 × 10^-2 M ineffective
"CN(C)C(=O)Oc1cccc([N+](C)(C)C)c1 [Neostigmine, reference compound]","action time of neostigmine longer than Huperzine A, %",myasthenia gravis,8.69%
same,"action time of neostigmine longer than Huperzine A, cases",myasthenia gravis,6 cases
same,IC50,true cholinesterase; [9],0.224 µM
same,IC50,pseudocholinesterase; [7],3.55 µM
same,"Abdominal pains, %",patients; control group,7.4%
same,"Abdominal pains, number of times",patients; control group,26
same,"Blurred vision, %",patients; control group,9.7%
same,"Blurred vision, number of times",patients; control group,24
same,"Dizziness, %",patients; control group,19.5%
same,"Dizziness, number of times",patients; control group,68
same,"Drooling, %",patients; control group,1.2%
same,"Drooling, number of times",patients; control group,11
same,"Increase in the number of bowel movements, %",patients; control group,2.0%
same,"Increase in the number of bowel movements, number of times",patients; control group,7
same,"Muscle bundle quivering, %",patients; control group,8.3%
same,"Muscle bundle quivering, number of times",patients; control group,29
same,"Myosis, %",patients; control group,3.4%
same,"Myosis, number of times",patients; control group,12
same,"Nausea, %",patients; control group,4.3%
same,"Nausea, number of times",patients; control group,15
same,"Perspiring, %",patients; control group,12.1%
same,"Perspiring, number of times",patients; control group,43
same,"Tinnitus, %",patients; control group,4.0%
same,"Tinnitus, number of times",patients; control group,14
same,"Vomiting, %",patients; control group,1.2%
same,"Vomiting, number of times",patients; control group,6
same,cases with side effects,"patients; control patients, 69 cases",34 cases
same,"cases with side effects, %","patients; control patients, 69 cases, X^2 =3.58, P>0.05",49.27%
same,perspiring and blurred vision vs Huperzine A,"patients; perspiring X^2 =5.5, P<0.01, blurred vision X^2 =12.96, P<0.001",more noticeably than Hyperzine A caused perspiring and blurred vision
same,EC50,[5]; Rattus norvegicus,0.272 µM
same,Strength of Effect,[5],1.61
"CNC(=O)Oc1ccc2c(c1)[C@]1(C)CCN(C)[C@@H]1N2C [Physostigmine, reference compound]",shocks accepted before achieving the learned state (learning),[6],7.9±3.5 shocks
same,minimal effective dose,[1]; rats,0.05 mg/kg
same,Strength of Effect,"[1]; rats, physostigmine = 1.0",1.0
same,LD50,in vivo [2],0.8 mg/kg
same,shocks required to achieve the learned state (memory),memory functions of rats,6.4±3.7 shocks
same,Toxic Strength,Rats,2.08
same,LD50,in vivo [3],2.4 mg/kg
same,IC50,pseudocholinesterase,1.12 µM
same,minimal effective dose,[4],0.12 mg/kg
same,effect on electrically stimulated muscle contraction,[4]; iv (Huperzine A 30 μg/kg),enhanced the rabbit's tibialis muscle contraction amplitude but to a lesser degree than that observed for the rats
same,Strength of Effect,[4]; physostigmine = 1.0,1.0
same,EC50,[5]; [8],0.245 µM
same,Strength of Effect,[5],1.79
same,Toxic Strength,Mice,2.25
"CCC1[C@H]2Cc3[nH]c(=O)ccc3[C@@]1(N)CC(C)C2 (stereo partly drawn) [tetrahydro-huperzine A, (5R, 9R)-5-amino-11-ethyl-5,6,7,8,9,10-hexahydro-7-methyl-5,9-methanocycloocta[b]pyridin-2(1H)-one]",IC50,true cholinesterase; [9],2.51 µM
same,IC50,pseudocholinesterase; [7],50.1 µM
Tubocurarine [reference compound],block of electrically induced muscle contraction,"[1]; tubocurarine 0.3 mg/kg iv, species not separated (rats/rabbits)",completely blocked the electrically induced muscle contraction
